The subject of this data set is rats inoculated intracisternally with Haemophilus influenzae type b lipooligosaccharide. Put plainly: Rat meningitis model (H. influenzae LOS). In kind it is in vivo. The note with it: for Leukocytosis: Experiment #3, 600 nmol i.v., CSF 4 hours after LOS. Here is the method:
The experiments were performed according to established protocols (Wispelway et al., 1988, J. Clin. Invest., 82: 1339-1346). Purified Haemophilus influenzae type b strain DL42 lipooligosaccharide (LOS) was prepared for inoculation by sonication for 30 minutes, dilution to the desired concentration (20 ng/50 μl) in normal saline or PBS, and sonication for an additional 15 to 30 minutes just prior to use.
Briefly, anesthetized female Wistar rats were placed under a micromanipulator and inoculated intracisternally with a 25 gauge needle. After removal of 50 μl of CSF (without visible blood contamination), rats were inoculated intracisternally with 50 μl (20 ng) of LOS using a 1 ml syringe with a 25 gauge needle. Ten to fifteen minutes after inoculation with LOS, the rats were treated by intravenous administration of the test substance: a solution of an FHA peptide in PBS, a solution of a control peptide in PBS, or an equal volume of PBS alone.
Three hours after LOS inoculation, 5 μCi of ^125 I-radiolabelled albumin in 50 μl normal saline was administered intravenously. One hour later, CSF was collected via intracisternal puncture and blood samples were collected via intracardiac puncture. CSF leukocytosis was determined by manually counting white blood cells using a hemacytometer, and blood-brain barrier permeability was determined as the percent of radioactivity in whole blood that was present in the CSF. Blood samples were obtained immediately prior to inoculation, immediately prior to treatment, and at 4 hours post-inoculation for determination of peripheral white blood cell concentrations.

In the case of Ac-ETKEVDG-NH2 [Acetyl/Amide-FHA II], the Leukocytosis result is “approximately 10,000 cells/ml”. Moreover, under “Experiment #3, 600 nmol”, the BBB permeability worked out at 6.00 ± 5.14%. The Leukocytosis (listed as ac/am FHA II) is on record as 10,500 ± 8523 cells/ml. For the same substance, the neutropenia entry (peripheral white blood cells) is “No neutropenia was observed”. In addition, for the setting “rat, in vivo”, the “Inhibition of blood-brain barrier permeability” value is recorded as “not observed”.

The record behind these values is patent US5932217A, “Peptides which inhibit adhesion between leukocytes and endothelial cells” (priority 1994, dated 1999).
